According to patent publication US11339130B1 (Blade Therapeutics, Inc., priority 2016, dated 2022):
Where two headings read alike, the source gives them in different places.

What was measured:
Human Calpain 1/NS1 = biological target: T1, Human Calpain 1/NS1 (Homo sapiens, UniProt P07384); assay: Calpain inhibition continuous fluorescence (FRET) assay, Human Calpain 1/NS1; type: biochemical; conditions: read-out: Human Calpain 1/NS1 IC50
T1 sequence (P07384 1-714): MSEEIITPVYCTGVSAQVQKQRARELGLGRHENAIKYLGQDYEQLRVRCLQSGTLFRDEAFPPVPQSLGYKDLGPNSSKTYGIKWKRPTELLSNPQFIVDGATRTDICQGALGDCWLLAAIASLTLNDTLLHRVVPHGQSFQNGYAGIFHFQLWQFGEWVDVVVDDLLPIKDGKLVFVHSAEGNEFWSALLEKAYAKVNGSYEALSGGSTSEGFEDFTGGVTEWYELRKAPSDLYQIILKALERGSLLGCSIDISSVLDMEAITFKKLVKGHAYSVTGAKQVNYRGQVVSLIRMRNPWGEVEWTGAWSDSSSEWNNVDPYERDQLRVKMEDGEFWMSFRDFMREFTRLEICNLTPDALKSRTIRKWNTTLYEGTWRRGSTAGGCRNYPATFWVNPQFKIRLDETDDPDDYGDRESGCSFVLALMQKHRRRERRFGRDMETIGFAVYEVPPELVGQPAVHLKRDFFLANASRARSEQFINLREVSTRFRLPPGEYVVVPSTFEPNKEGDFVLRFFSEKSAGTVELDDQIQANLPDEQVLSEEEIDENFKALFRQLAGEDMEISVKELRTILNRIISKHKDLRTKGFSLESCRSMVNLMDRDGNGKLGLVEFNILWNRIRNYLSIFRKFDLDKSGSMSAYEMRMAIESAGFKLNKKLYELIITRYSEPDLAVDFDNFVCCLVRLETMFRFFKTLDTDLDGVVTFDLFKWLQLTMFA
T1 sequence (P04632 1-268 partner): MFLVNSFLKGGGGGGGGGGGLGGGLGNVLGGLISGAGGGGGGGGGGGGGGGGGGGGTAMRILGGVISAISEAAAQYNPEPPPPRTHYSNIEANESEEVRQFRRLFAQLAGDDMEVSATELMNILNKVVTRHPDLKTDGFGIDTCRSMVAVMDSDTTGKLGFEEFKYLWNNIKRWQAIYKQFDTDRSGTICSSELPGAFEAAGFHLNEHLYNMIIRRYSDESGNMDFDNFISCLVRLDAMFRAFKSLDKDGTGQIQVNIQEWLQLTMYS
Outline: (§1)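 Inhibitors were preincubated with calpain in 50 mM Tris pH 7.5, 100 mM NaCl, 1 mM DTT at 25C. Reactions were started with 5-FAM/QXL 520 FRET peptide substrate plus CaCl2 and read at 490/520 nm for 10 min. IC50s came from 4-parameter fits of slope rates (1-5 min).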

[1] = test system: Calpain activity in SH-SY5Y cells; assay: SH-SY5Y + AMC fluorescence assay (Suc-LLVY-AMC substrate); type: cell-based; conditions: read-out: SH-SY5Y + AMC IC50
Human Calpain 9/NS1 = biological target: T2, Human Calpain 9/NS1 (Homo sapiens, UniProt O14815); assay: Calpain inhibition continuous fluorescence (FRET) assay, Human Calpain 9/NS1; type: biochemical; conditions: read-out: Human Calpain 9/NS1 IC50
T2 sequence (O14815 1-690): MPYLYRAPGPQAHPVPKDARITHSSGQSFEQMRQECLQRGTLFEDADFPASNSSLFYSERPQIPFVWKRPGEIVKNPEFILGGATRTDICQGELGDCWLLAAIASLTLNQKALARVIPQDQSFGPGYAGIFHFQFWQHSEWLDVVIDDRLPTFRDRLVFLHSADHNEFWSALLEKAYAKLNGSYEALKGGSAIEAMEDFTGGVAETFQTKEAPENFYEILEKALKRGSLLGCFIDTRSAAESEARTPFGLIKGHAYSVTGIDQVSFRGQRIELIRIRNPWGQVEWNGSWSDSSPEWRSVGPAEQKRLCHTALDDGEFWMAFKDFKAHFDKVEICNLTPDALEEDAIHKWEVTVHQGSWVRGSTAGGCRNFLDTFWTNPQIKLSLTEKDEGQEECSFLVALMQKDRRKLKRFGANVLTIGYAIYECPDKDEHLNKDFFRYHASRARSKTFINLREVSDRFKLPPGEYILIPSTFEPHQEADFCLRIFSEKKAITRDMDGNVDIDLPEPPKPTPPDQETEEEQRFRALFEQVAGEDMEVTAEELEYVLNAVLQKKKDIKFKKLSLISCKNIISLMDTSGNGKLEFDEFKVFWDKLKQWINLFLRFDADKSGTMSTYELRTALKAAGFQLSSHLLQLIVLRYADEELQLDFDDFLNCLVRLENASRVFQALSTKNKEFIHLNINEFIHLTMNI
T2 sequence (P04632 1-268 partner): T1 sequence (P04632 1-268 partner)
Outline: as §1

Human Calpain 2/NS1 = biological target: T3, Human Calpain 2/NS1 (Homo sapiens, UniProt P17655); assay: Calpain inhibition continuous fluorescence (FRET) assay, Human Calpain 2/NS1; type: biochemical; conditions: read-out: Human Calpain 2/NS1 IC50
T3 sequence (P17655 1-700): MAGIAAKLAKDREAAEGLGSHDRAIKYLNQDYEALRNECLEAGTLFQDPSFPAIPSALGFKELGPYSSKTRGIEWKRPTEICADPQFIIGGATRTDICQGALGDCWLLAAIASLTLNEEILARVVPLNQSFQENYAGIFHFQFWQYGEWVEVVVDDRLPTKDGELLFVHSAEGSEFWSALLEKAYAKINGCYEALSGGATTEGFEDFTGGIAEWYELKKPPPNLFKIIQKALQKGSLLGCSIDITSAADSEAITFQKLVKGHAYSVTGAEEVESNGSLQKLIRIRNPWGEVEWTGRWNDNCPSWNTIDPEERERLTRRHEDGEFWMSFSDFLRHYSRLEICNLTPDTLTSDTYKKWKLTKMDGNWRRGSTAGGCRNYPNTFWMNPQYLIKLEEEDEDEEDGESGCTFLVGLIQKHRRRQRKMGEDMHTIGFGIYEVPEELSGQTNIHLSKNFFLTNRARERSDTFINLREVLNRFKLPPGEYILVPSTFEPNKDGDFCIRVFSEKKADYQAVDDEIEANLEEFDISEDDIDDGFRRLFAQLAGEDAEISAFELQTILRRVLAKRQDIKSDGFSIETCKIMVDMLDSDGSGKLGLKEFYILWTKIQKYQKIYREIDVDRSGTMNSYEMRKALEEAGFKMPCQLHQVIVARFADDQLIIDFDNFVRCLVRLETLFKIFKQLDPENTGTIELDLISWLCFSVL
T3 sequence (P04632 1-268 partner): T1 sequence (P04632 1-268 partner)
Outline: as §1

[2] = test system: Calpain activity in SH-SY5Y cells (SBDP-150); assay: SH-SY5Y Spectrin western blot assay (SBDP-150 breakdown product, A23187-induced); type: cell-based; conditions: Homo sapiens, SH-SY5Y cells, read-out: SH-SY5Y Spectrin IC50
[3] = Column D, A23187-induced SBDP-150
[4] = A23187-induced SBDP-150, western blot

SMILES	IC50 (Human Calpain 1/NS1; Column A)	IC50 ([1]; Column E)	IC50 (Human Calpain 9/NS1; Column C)	IC50 (Human Calpain 2/NS1; Column B)	IC50 [2, 3]	IC50 (Human Calpain 1/NS1)	IC50 [1]	IC50 (Human Calpain 9/NS1)	IC50 (Human Calpain 2/NS1)	IC50 [2, 4]
Cc1cc(C(=O)N[C@@H](Cc2ccccc2)C(=O)C(N)=O)n(-c2ccc(CNS(=O)(=O)c3ccccc3)cc2)n1 [Compound 156, (S)—N-(4-amino-3,4-dioxo-1-phenylbutan-2-yl)-3-methyl-1-(4-(phenylsulfonamidomethyl)phenyl)-1H-pyrazole-5-carboxamide]	< 3 µM	> 25 µM	< 3 µM	< 3 µM	< 10 µM	–	–	–	–	–
Cc1cc(C(=O)N[C@@H](Cc2ccccc2)C(=O)C(N)=O)n(-c2ccccn2)n1 [Compound 12, (S)—N-(4-amino-3,4-dioxo-1-phenylbutan-2-yl)-3-methyl-1-(pyridin-2-yl)-1H-pyrazole-5-carboxamide]	< 3 µM	< 10 µM	< 3 µM	< 3 µM	10 to 25 µM	–	–	–	–	–
Cc1cc(C(=O)NC(Cc2ccccc2)C(=O)C(N)=O)n(-c2ccc(C(F)(F)F)cn2)n1 (stereo not drawn) [Compound 445, N-(4-amino-3,4-dioxo-1-phenylbutan-2-yl)-3-methyl-1-(5-(trifluoromethyl)pyridin-2-yl)-1H-pyrazole-5-carboxamide]	–	–	–	–	–	< 3 µM	> 25 µM	< 3 µM	< 3 µM	< 10 µM
Cc1cc(C(=O)NC(Cc2ccccc2)C(=O)C(N)=O)n(-c2ccc(OC3CCOCC3)cc2)n1 (stereo not drawn) [Compound 440, N-(4-amino-3,4-dioxo-1-phenylbutan-2-yl)-3-methyl-1-(4-((tetrahydro-2H-pyran-4-yl)oxy)phenyl)-1H-pyrazole-5-carboxamide]	–	–	–	–	–	< 3 µM	> 25 µM	< 3 µM	< 3 µM	< 10 µM
Cc1nc(-c2ccccc2)c(C(=O)N[C@@H](CC(C)C)C(=O)C(N)=O)o1 [Compound 253, (S)—N-(1-amino-5-methyl-1,2-dioxohexan-3-yl)-2-methyl-4-phenyloxazole-5-carboxamide]	< 3 µM	> 25 µM	< 3 µM	< 3 µM	10 to 25 µM	–	–	–	–	–
CCCC[C@H](NC(=O)c1cn(C)nc1-c1ccccc1)C(=O)C(N)=O [Compound 419, (S)—N-(1-amino-1,2-dioxoheptan-3-yl)-1-methyl-3-phenyl-1H-pyrazole-4-carboxamide]	–	–	–	–	–	< 3 µM	> 25 µM	< 3 µM	< 3 µM	10 to 25 µM
Cn1ncc(C(=O)N[C@@H](Cc2ccccc2)C(=O)C(N)=O)c1-c1cnccn1 [Compound 174]	< 3 µM	> 25 µM	< 3 µM	< 3 µM	> 25 µM	–	–	–	–	–
Cn1cc(C(=O)NC(Cc2ccccc2)C(=O)C(N)=O)c(-n2ncc3ccccc32)n1 (stereo not drawn) [Compound 530, N-(4-amino-3,4-dioxo-1-phenylbutan-2-yl)-3-(1H-indazol-1-yl)-1-methyl-1H-pyrazole-4-carboxamide]	–	–	–	–	–	< 3 µM	> 25 µM	< 3 µM	< 3 µM	> 25 µM
Cc1ccc(-c2nn(C)cc2C(=O)NC(Cc2ccccc2)C(=O)C(N)=O)o1 (stereo not drawn) [Compound 498, N-(4-amino-3,4-dioxo-1-phenylbutan-2-yl)-1-methyl-3-(5-methylfuran-2-yl)-1H-pyrazole-4-carboxamide]	–	–	–	–	–	< 3 µM	10 to 25 µM	< 3 µM	< 3 µM	> 25 µM
O=C(NC1CC1)C(=O)C(Cc1ccccc1)NC(=O)c1cnoc1-c1ccccc1 (stereo not drawn) [Compound 461, N-(4-(cyclopropylamino)-3,4-dioxo-1-phenylbutan-2-yl)-5-phenylisoxazole-4-carboxamide]	–	–	–	–	–	< 3 µM	> 25 µM	< 3 µM	< 3 µM	< 10 µM
Cc1cccc(-c2cccc(-n3nc(C)cc3C(=O)N[C@@H](Cc3ccccc3)C(=O)C(N)=O)c2)c1 [Compound 105, (S)—N-(4-amino-3,4-dioxo-1-phenylbutan-2-yl)-3-methyl-1-(3′-methyl-[1,1′-biphenyl]-3-yl)-1H-pyrazole-5-carboxamide]	< 3 µM	> 25 µM	< 3 µM	< 3 µM	> 25 µM	–	–	–	–	–
CC(C)n1cc(C(=O)NC(Cc2ccccc2)C(=O)C(N)=O)c(-c2cccc(F)c2)n1 (stereo not drawn) [Compound 473, N-(4-amino-3,4-dioxo-1-phenylbutan-2-yl)-3-(3-fluorophenyl)-1-isopropyl-1H-pyrazole-4-carboxamide]	–	–	–	–	–	< 3 µM	10 to 25 µM	< 3 µM	< 3 µM	10 to 25 µM
Cc1ccccc1-c1oncc1C(=O)NC(Cc1ccccc1)C(=O)C(N)=O (stereo not drawn) [Compound 557, N-(4-amino-3,4-dioxo-1-phenylbutan-2-yl)-5-(o-tolyl)isoxazole-4-carboxamide]	–	–	–	–	–	< 3 µM	< 10 µM	< 3 µM	< 3 µM	> 25 µM
Cn1nc(C(=O)N[C@@H](Cc2ccccc2)C(=O)C(N)=O)c(-c2ccccc2)n1 [Compound 259, (S)—N-(4-amino-3,4-dioxo-1-phenylbutan-2-yl)-2-methyl-5-phenyl-2H-1,2,3-triazole-4-carboxamide]	< 3 µM	10 to 25 µM	< 3 µM	< 3 µM	< 10 µM	–	–	–	–	–
Cn1cc(C(=O)NC(CC(F)(F)F)C(=O)C(N)=O)c(-c2ccccc2)n1 (stereo not drawn) [Compound 424, N-(5-amino-1,1,1-trifluoro-4,5-dioxopentan-3-yl)-1-methyl-3-phenyl-1H-pyrazole-4-carboxamide]	–	–	–	–	–	3 to 10 µM	> 25 µM	< 3 µM	< 3 µM	10 to 25 µM
